Experimental data: publication PMC7686313, “Phase 1 study of mTORC1/2 inhibitor sapanisertib (TAK-228) in advanced solid tumours, with an expansion phase in renal, endometrial or bladder cancer” (British Journal of Cancer, 2020)

Assay: Safety (adverse events, NCI CTCAE v4.0), dose-escalation phase
[1] = dose-escalation QD × 3dQW 6–20 mg
[2] = dose-escalation QD × 5dQW 7–13 mg

Protocol: Patients who received ≥1 dose of sapanisertib were included in the safety population. […] Adverse events (AEs) were assessed using the National Cancer Institute Common Terminology Criteria for Adverse Events, v4.0. Patients were provided with a home blood-glucose meter to monitor their fasting predose blood-glucose measurements to assess hyperglycaemia as an on-target AE and PD marker.

CC(C)n1nc(-c2ccc3oc(N)nc3c2)c2c(N)ncnc21 [Sapanisertib]
On-study deaths within 30 days of last dose (both phases): 7
Acute kidney injury, treatment-related AE (dose-escalation QD 2–7 mg): 1 (3) n (%)
Anaemia, treatment-related AE (dose-escalation QD 2–7 mg): 3 (10) n (%)
Any AE (dose-escalation QD 2–7 mg): 31 (100) n (%)
Any AE resulting in dose modification/interruption (dose-escalation QD 2–7 mg): 22 (71) n (%)
Any AE resulting in treatment discontinuation (dose-escalation QD 2–7 mg): 11 (35) n (%)
Any SAE (dose-escalation QD 2–7 mg): 13 (42) n (%)
Any grade ≥3 AE (dose-escalation QD 2–7 mg): 19 (61) n (%)
Any treatment-related AE (dose-escalation QD 2–7 mg): 31 (100) n (%)
Any treatment-related SAE (dose-escalation QD 2–7 mg): 4 (13) n (%)
Any treatment-related grade ≥3 AE (dose-escalation QD 2–7 mg): 14 (45) n (%)
Asthenia, treatment-related AE (dose-escalation QD 2–7 mg): 6 (19) n (%)
Asthenia, treatment-related grade ≥3 AE (dose-escalation QD 2–7 mg): 1 (3) n (%)
Blood creatinine increased, treatment-related AE (dose-escalation QD 2–7 mg): 7 (23) n (%)
Decreased appetite, treatment-related AE (dose-escalation QD 2–7 mg): 11 (35) n (%)
Dehydration, treatment-related AE (dose-escalation QD 2–7 mg): 3 (10) n (%)
Dehydration, treatment-related grade ≥3 AE (dose-escalation QD 2–7 mg): 0 (0) n (%)
Diarrhoea, treatment-related AE (dose-escalation QD 2–7 mg): 11 (35) n (%)
Diarrhoea, treatment-related grade ≥3 AE (dose-escalation QD 2–7 mg): 1 (3) n (%)
Dry mouth, treatment-related AE (dose-escalation QD 2–7 mg): 5 (16) n (%)
Dysgeusia, treatment-related AE (dose-escalation QD 2–7 mg): 8 (26) n (%)
Dyspepsia, treatment-related AE (dose-escalation QD 2–7 mg): 1 (3) n (%)
Fatigue, treatment-related AE (dose-escalation QD 2–7 mg): 8 (26) n (%)
Fatigue, treatment-related grade ≥3 AE (dose-escalation QD 2–7 mg): 0 (0) n (%)
Headache, treatment-related AE (dose-escalation QD 2–7 mg): 0 (0) n (%)
Hypercholesterolemia, treatment-related AE (dose-escalation QD 2–7 mg): 5 (16) n (%)
Hyperglycaemia, treatment-related AE (dose-escalation QD 2–7 mg): 25 (81) n (%)
Hyperglycaemia, treatment-related grade ≥3 AE (dose-escalation QD 2–7 mg): 6 (19) n (%)
Hypophosphatemia, treatment-related AE (dose-escalation QD 2–7 mg): 0 (0) n (%)
Hypophosphatemia, treatment-related grade ≥3 AE (dose-escalation QD 2–7 mg): 0 (0) n (%)
Lymphopenia, treatment-related grade ≥3 AE (dose-escalation QD 2–7 mg): 2 (6) n (%)
Nausea, treatment-related AE (dose-escalation QD 2–7 mg): 13 (42) n (%)
Nausea, treatment-related grade ≥3 AE (dose-escalation QD 2–7 mg): 0 (0) n (%)
On-study deaths (dose-escalation QD 2–7 mg): 1 (3) n (%)
Pruritus generalised, treatment-related AE (dose-escalation QD 2–7 mg): 8 (26) n (%)
Pruritus generalised, treatment-related grade ≥3 AE (dose-escalation QD 2–7 mg): 2 (6) n (%)
Pruritus, treatment-related AE (dose-escalation QD 2–7 mg): 2 (6) n (%)
Rash maculo-papular, treatment-related AE (dose-escalation QD 2–7 mg): 3 (10) n (%)
Rash maculo-papular, treatment-related grade ≥3 AE (dose-escalation QD 2–7 mg): 2 (6) n (%)
Rash, treatment-related AE (dose-escalation QD 2–7 mg): 8 (26) n (%)
Rash, treatment-related grade ≥3 AE (dose-escalation QD 2–7 mg): 2 (6) n (%)
Stomatitis (includes oropharyngeal pain and mucosal inflammation), treatment-related AE (dose-escalation QD 2–7 mg): 11 (35) n (%)
Stomatitis, treatment-related grade ≥3 AE (dose-escalation QD 2–7 mg): 0 (0) n (%)
Thrombocytopenia, treatment-related grade ≥3 AE (dose-escalation QD 2–7 mg): 2 (6) n (%)
Vomiting, treatment-related AE (dose-escalation QD 2–7 mg): 8 (26) n (%)
Weight decreased, treatment-related AE (dose-escalation QD 2–7 mg): 1 (3) n (%)
Acute kidney injury, treatment-related AE [1]: 0 (0) n (%)
Anaemia, treatment-related AE [1]: 1 (3) n (%)
Any AE [1]: 33 (100) n (%)
Any AE resulting in dose modification/interruption [1]: 21 (64) n (%)
Any AE resulting in treatment discontinuation [1]: 7 (21) n (%)
Any SAE [1]: 17 (52) n (%)
Any grade ≥3 AE [1]: 25 (76) n (%)
Any treatment-related AE [1]: 32 (97) n (%)
Any treatment-related SAE [1]: 9 (27) n (%)
Any treatment-related grade ≥3 AE [1]: 19 (58) n (%)
Asthenia, treatment-related AE [1]: 10 (30) n (%)
Asthenia, treatment-related grade ≥3 AE [1]: 4 (12) n (%)
Blood creatinine increased, treatment-related AE [1]: 2 (6) n (%)
Decreased appetite, treatment-related AE [1]: 17 (52) n (%)
Dehydration, treatment-related AE [1]: 1 (3) n (%)
Dehydration, treatment-related grade ≥3 AE [1]: 1 (3) n (%)
Diarrhoea, treatment-related AE [1]: 13 (39) n (%)
Diarrhoea, treatment-related grade ≥3 AE [1]: 0 (0) n (%)
Dry mouth, treatment-related AE [1]: 2 (6) n (%)
Dysgeusia, treatment-related AE [1]: 4 (12) n (%)
Dyspepsia, treatment-related AE [1]: 1 (3) n (%)
Fatigue, treatment-related AE [1]: 12 (36) n (%)
Fatigue, treatment-related grade ≥3 AE [1]: 0 (0) n (%)
Headache, treatment-related AE [1]: 3 (9) n (%)
Hypercholesterolemia, treatment-related AE [1]: 4 (12) n (%)
Hyperglycaemia, treatment-related AE [1]: 22 (67) n (%)
Hyperglycaemia, treatment-related grade ≥3 AE [1]: 7 (21) n (%)
Hypophosphatemia, treatment-related AE [1]: 5 (15) n (%)
Hypophosphatemia, treatment-related grade ≥3 AE [1]: 3 (9) n (%)
Lymphopenia, treatment-related grade ≥3 AE [1]: 2 (6) n (%)
Nausea, treatment-related AE [1]: 23 (70) n (%)
Nausea, treatment-related grade ≥3 AE [1]: 2 (6) n (%)
On-study deaths [1]: 2 (6) n (%)
Pruritus generalised, treatment-related AE [1]: 6 (18) n (%)
Pruritus generalised, treatment-related grade ≥3 AE [1]: 1 (3) n (%)
Pruritus, treatment-related AE [1]: 1 (3) n (%)
Rash maculo-papular, treatment-related AE [1]: 1 (3) n (%)
Rash maculo-papular, treatment-related grade ≥3 AE [1]: 0 (0) n (%)
Rash, treatment-related AE [1]: 7 (21) n (%)
Rash, treatment-related grade ≥3 AE [1]: 0 (0) n (%)
Stomatitis (includes oropharyngeal pain and mucosal inflammation), treatment-related AE [1]: 23 (70) n (%)
Stomatitis, treatment-related grade ≥3 AE [1]: 5 (15) n (%)
Thrombocytopenia, treatment-related grade ≥3 AE [1]: 0 (0) n (%)
Vomiting, treatment-related AE [1]: 18 (55) n (%)
Weight decreased, treatment-related AE [1]: 2 (6) n (%)
Acute kidney injury, treatment-related AE [2]: 0 (0) n (%)
Anaemia, treatment-related AE [2]: 0 (0) n (%)
Any AE [2]: 22 (100) n (%)
Any AE resulting in dose modification/interruption [2]: 12 (55) n (%)
Any AE resulting in treatment discontinuation [2]: 6 (27) n (%)
Any SAE [2]: 10 (45) n (%)
Any grade ≥3 AE [2]: 14 (64) n (%)
Any treatment-related AE [2]: 21 (95) n (%)
Any treatment-related SAE [2]: 4 (18) n (%)
Any treatment-related grade ≥3 AE [2]: 8 (36) n (%)
Asthenia, treatment-related AE [2]: 9 (41) n (%)
Asthenia, treatment-related grade ≥3 AE [2]: 3 (14) n (%)
Blood creatinine increased, treatment-related AE [2]: 0 (0) n (%)
Decreased appetite, treatment-related AE [2]: 7 (32) n (%)
Dehydration, treatment-related AE [2]: 0 (0) n (%)
Dehydration, treatment-related grade ≥3 AE [2]: 0 (0) n (%)
Diarrhoea, treatment-related AE [2]: 8 (36) n (%)
Diarrhoea, treatment-related grade ≥3 AE [2]: 0 (0) n (%)
Dry mouth, treatment-related AE [2]: 2 (9) n (%)
Dysgeusia, treatment-related AE [2]: 4 (18) n (%)
Dyspepsia, treatment-related AE [2]: 0 (0) n (%)
Fatigue, treatment-related AE [2]: 7 (32) n (%)
